± gives the standard deviation.
Legend:
[1] = test system: Toxoplasma gondii RH tachyzoites; assay: % growth inhibition vs DMSO (48 h luciferase); higher = more inhibition; conditions: 10 µM
[2] = test system: Plasmodium falciparum 3D7; assay: EC50 growth inhibition (60 h, SYBR Green); conditions: stage: ring-stage start
[3] = test system: Plasmodium falciparum 3D7; assay: % inhibition of schizont-to-ring transition vs DMSO; higher = more inhibition
How it was run: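 Tightly synchronised P. falciparum schizonts (about 40–42 hours post-invasion, 1% parasitemia, 2.5% hematocrit, AlbuMAX-supplemented RPMI) were exposed to compound at 1, 3 or 10 µM, with vehicle and positive controls. Cells were glutaraldehyde-fixed, Triton-permeabilised, stained with Hoechst 33342 and counted by flow cytometry (at least 100,000 events). Schizont-to-ring transition inhibition is new ring formation relative to vehicle controls, averaged over three experiments.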

[4] = biological target: Toxoplasma gondii RH tachyzoites; assay: EC50 growth inhibition (48 h luciferase)
[5] = test system: Toxoplasma gondii RH tachyzoites; assay: median egress time after A23187 ionophore; higher = stronger egress inhibition; conditions: 10 µM; pretreatment time: 24 h
Procedure: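 T. gondii RH tachyzoites expressing firefly luciferase were grown in HFF monolayers for 48 h with compound. % growth inhibition at 10 µM and EC50 (2-fold dilutions from 10 µM) were read by luminescence relative to 1% DMSO; EC50 listed as 10 (not determined, <80% inhibition) is left out. Plaque assays: 50 tachyzoites per well with 10 µM compound for 8-10 days, giving plaque count and area by crystal violet/ImageJ. Egress: median time to egress after 1 µM A23187 ionophore following 24 h of 10 µM compound (DMSO ~1.8 min; >10 = no egress within 10 min).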

[6] = test system: Toxoplasma gondii RH tachyzoites; assay: plaque count per well; higher = less inhibition; extreme values may be limits of the assay; conditions: 10 µM; 8-10 days
How it was run: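 Fifty T. gondii RH tachyzoites were added to each well of six-well plates holding confluent HFF monolayers preseeded with compound at 10 µM. Plates were left undisturbed for 8 to 10 days, then fixed with methanol and stained with crystal violet. Plaques were imaged and counted per well with ImageJ, with untreated and 1% DMSO-treated wells as controls. Plaque count per well reflects delayed-death inhibition of parasite growth.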
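Wherever % growth inhibition vs DMSO (48 h luciferase) is given: tested in triplicate wells of 96-well plates on confluent HFF monolayers, with 1% DMSO wells as negative control in four replicates.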

| Structure (SMILES) | % growth inhibition [1] | EC50 growth inhibition [2] | % inhibition of schizont-to-ring transition ([3]; 1 µM) | % inhibition of schizont-to-ring transition ([3]; 3 µM) | % inhibition of schizont-to-ring transition ([3]; 10 µM) | EC50 growth inhibition [4] | median egress time [5] | plaque count per well [6] |
| --- | --- | --- | --- | --- | --- | --- | --- | --- |
| CCN(CC)c1ccc(NC(=O)c2cccs2)cc1 | 91.4 ± 2.7% | 2110 nM | < 0% | 3.66% | 31.7% | 1650 nM | – | – |
| CCN(CC)CCCNc1nc(-c2ccc(Cl)cc2)nc2ccccc12 | 80.8 ± 4.8% | 3520 nM | 44.9% | 45.1% | 58.3% | 122 nM | – | – |
| COc1cc2c(cc1OC)C1=NNC(=O)C1=NC(C)(C)C2 | 80.4 ± 1.2% | 1790 nM | 14.2% | 25.3% | 63.4% | 3260 nM | – | – |
| N=c1n(CCN2CCCCC2)c2ccccc2n1CC(O)c1cccc(Br)c1 (stereo not given) | 85.2 ± 2.2% | 624 nM | < 0% | 35.2% | 64% | 4580 nM | – | – |
| CC(C)OCc1cc(CN2CCN(c3cccc(Cl)c3)CC2)c(O)c2ncccc12 | 81.6 ± 18% | 3170 nM | 7.59% | 35.5% | 53.9% | 1690 nM | – | – |
| CN(C)CCCNc1c2ccccc2nc2ccccc12 | 100.3 ± 0.38% | 92.8 nM | 28.1% | 37.7% | 40.7% | 1480 nM | – | – |
| CCCc1c(C)nc2ccccc2c1O | 87.69 ± 0.86% | 1010 nM | 8.03% | 21.8% | 46.6% | 803 nM | – | – |
| COc1ccc(C2Sc3ccccc3N=C3C2=C(O)c2ccccc23)cc1 (stereo not given) | 98.68 ± 0.16% | 1180 nM | < 0% | 1.15% | 31.1% | 963 nM | – | – |
| COc1ccc(Nc2nc(N/N=C/c3ccc(O)cc3)nc(Nc3ccc([N+](=O)[O-])cc3)n2)cc1 | 100.2 ± 0.27% | 1100 nM | 20.8% | 44% | 63% | 2630 nM | – | – |
| N=c1n(CCN2CCCCC2)c2ccccc2n1CC(=O)c1ccc(Cl)c(Cl)c1 | 99.931 ± 0.065% | 237 nM | 36.2% | 57.9% | 80.4% | 1820 nM | – | – |
| O=C(Nc1ccc(F)c(Cl)c1)Nc1ccc(Cl)c(Cl)c1 | 100.1 ± 0.21% | 3980 nM | 36.5% | 55.4% | 77.4% | 346 nM | – | – |
| O=C(NCC1Cc2cccc(-c3ccncc3)c2O1)c1csc2c1CCCC2 (stereo not given) | 94.12 ± 0.48% | 4480 nM | 9.1% | 14.2% | 20.6% | 845 nM | – | – |
| COc1ccc2nc(C)cc(Nc3ccc(Cl)cc3)c2c1 | 99.3 ± 1% | 477 nM | 24.7% | 39.5% | 56.8% | 556 nM | – | – |
| O=C(Cc1ccccc1)NC(c1ccc(Cl)cc1)c1c(O)ccc2ccccc12 (stereo not given) | 100.2 ± 0.43% | 1880 nM | 0.685% | 26.1% | 67.8% | 1020 nM | – | – |
| COc1cc(C(=O)ON=C(N)Cc2cccc3ccccc23)cc(OC)c1OC | 99.01 ± 0.4% | 218 nM | 7.84% | 57% | 73.7% | 836 nM | – | – |
| CCCCNc1nc(NC(C)(C)C)nc(NC(C)(C)C)n1 | 93.8 ± 2.5% | 2760 nM | 12.2% | 25.9% | 66.4% | 603 nM | – | – |
| O=C(Nc1ccc(Cl)c(Cl)c1)Nc1ccc(Cl)c(Cl)c1 | 100.5 ± 0.22% | 7140 nM | 15.3% | 29.9% | 72.5% | 196 nM | – | – |
| O=C(Nc1ccc(Cl)cc1C(=O)Nc1ccncc1)c1ccc(Cl)cc1Cl | 80.8 ± 4.7% | 1280 nM | 3.75% | 32.4% | 62.5% | 3950 nM | – | – |
| CCCCCn1c(=N)n(CC(O)COc2cccc(C)c2)c2ccccc21 (stereo not given) | 99.47 ± 0.32% | 1940 nM | 8.72% | 13.3% | 61.9% | 1770 nM | – | – |
| COc1cccc(NC(=O)Cn2c(C)c(C#N)c3ccccc32)c1 | 94.39 ± 0.68% | 231 nM | 56.8% | 75.8% | 77.4% | 905 nM | – | – |
| CCCCC(O)(c1ccc(Cl)cc1)C(CN1CCOCC1)c1ccc(Cl)cc1 (stereo not given) | 99.1 ± 0.71% | 2010 nM | 21% | 18.3% | 40.5% | 5000 nM | – | – |
| O=C(NCCCN1CCC(N2CCCCC2)CC1)C1=Cc2cc(Br)ccc2OC1 | 88.9 ± 1.1% | 348 nM | 27% | 57.9% | 66.7% | 2690 nM | – | – |
| CSc1ccccc1C(=O)Nc1nc(-c2ccccn2)cs1 | 99.44 ± 0.19% | 1710 nM | 23% | 26.9% | 40.1% | 849 nM | – | – |
| Cc1cc(Nc2cccc(F)c2)nc(NCc2ccccc2)n1 | 97.33 ± 0.9% | 149 nM | 43.1% | 60.2% | 70.5% | 879 nM | – | – |
| CCOc1cccc(C(=O)Nc2ccc(-c3nc4ccccc4[nH]3)cc2)c1 | < 0% | – | 7.94% | 22.4% | 54.6% | – | 1.87 min | 28 |
| COc1ccccc1N1C(=N)SC(=Cc2ccc(OCc3ccccc3F)cc2)C1=O | 93.42 ± 0.8% | 4920 nM | 14.8% | 30.1% | 52.5% | 978 nM | – | – |
| Nc1ccc(-c2nc3cc(Oc4ccc(Oc5ccc6[nH]c(-c7ccc(N)cc7)nc6c5)cc4)ccc3[nH]2)cc1 | 100.27 ± 0.078% | 253 nM | 23.6% | 43.2% | 60.7% | 1610 nM | – | – |
| CCOc1ccc(-c2nonc2NC(=O)c2cccc(C)c2)cc1OCC | 96.5 ± 1.9% | 374 nM | 81.4% | 80% | 78.5% | 1620 nM | – | – |
| CCOc1ccc2nc(C)cc(Nc3ccc(N(C)C)cc3)c2c1 | 98.02 ± 0.4% | 410 nM | 44.9% | 65.7% | 69.3% | 1440 nM | – | – |
| Cc1ccc(C2CC(C(F)(F)F)n3nc(C(=O)N4CCN(C(c5ccccc5)c5ccccc5)CC4)cc3N2)cc1 (stereo not given) | 99.677 ± 0.058% | 2040 nM | < 0% | < 0% | 35.3% | 1660 nM | – | – |
